Read-outs that look alike come from different tables or passages of the source.
How the values were obtained:
[1] = biological target: CB1 receptor; design: method as in Deventer et al. [2023b]; details: AequoScreen / Ca2+ release assay, ref Deventer et al. [2023b], cited from earlier work
[2] = biological target: CB1 receptor; details: β-arrestin 2 recruitment, cited from earlier work
[3] = biological target: human CB1 receptor (Homo sapiens, UniProt P21554); assay: AequoScreen CB1 assay (intracellular Ca2+ release, CHO-K1 cells, apoaequorin/Gα16); details: for Emax: CHO-K1, read-out: Efficacy (% of JWH-018) Emax; for Efficacy (Emax) Mean Diff: Brown-Forsythe and Welch ANOVA; for fold difference of each other (potency): brominated SCRAs with pent-4-enyl, butyl and pentyl tails; for fold weaker in potency than JWH-018: EC50 ratio vs JWH-018; for fold less potent than the butyl (ADB-5′Br-BUTINACA): brominated ADB SCRAs with different tails
Chain of human CB1 receptor (P21554 whole entry): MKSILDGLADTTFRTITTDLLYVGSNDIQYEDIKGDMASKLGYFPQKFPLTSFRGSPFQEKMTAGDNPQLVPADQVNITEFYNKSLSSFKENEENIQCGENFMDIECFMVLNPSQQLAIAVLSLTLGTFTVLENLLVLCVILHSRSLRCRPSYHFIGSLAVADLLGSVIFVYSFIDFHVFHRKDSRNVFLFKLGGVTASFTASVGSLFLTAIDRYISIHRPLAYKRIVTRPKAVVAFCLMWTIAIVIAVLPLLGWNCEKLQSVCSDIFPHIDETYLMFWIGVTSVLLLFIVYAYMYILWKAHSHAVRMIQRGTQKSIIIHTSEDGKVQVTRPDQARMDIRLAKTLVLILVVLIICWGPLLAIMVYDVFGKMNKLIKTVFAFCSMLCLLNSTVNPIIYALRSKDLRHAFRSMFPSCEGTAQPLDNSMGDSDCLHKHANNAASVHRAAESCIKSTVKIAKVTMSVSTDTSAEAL

[4] = Compound 1 vs Compound 2 = MDMB-4en-5’Br-PINACA (also printed MDMB-5’Br-4en-PINACA)
[5] = Compound 1 vs Compound 2 = MDMB-5’Cl-BUTINACA
[6] = Compound 1 vs Compound 2 = MDMB-5’F-BUTINACA
[7] = Compound 1 vs Compound 2 = MDMB-BUTINACA
[8] = ref Deventer et al. [2023b], read-out: EC50
[9] = Compound 1 vs Compound 2 = ADB-4en-5’Br-PINACA
[10] = Compound 1 vs Compound 2 = ADB-5’Br-FUBINACA
[11] = Compound 1 vs Compound 2 = ADB-5’Br-PINACA
[12] = Compound 1 vs Compound 2 = ADB-5’Cl-BUTINACA
[13] = Compound 1 vs Compound 2 = ADB-5’F-BUTINACA
[14] = Compound 1 vs Compound 2 = ADB-BUTINACA
[15] = Compound 1 vs Compound 2 = MDMB-5’Br-BUTINACA
[16] = EC50 ratio vs non-halogenated analog ADB-BUTINACA
[17] = Compound 1 vs Compound 2 = MMB-5’Cl-BUTINACA
[18] = Compound 1 vs Compound 2 = MDMB-INACA
[19] = Compound 1 vs Compound 2 = AB-5’Cl-BUTINACA
[20] = Compound 1 vs Compound 2 = MMB-5’F-BUTINACA
[21] = Compound 1 vs Compound 2 = ADB-5’Br-BUTINACA

CC(C)(C)[C@H](NC(=O)c1n[nH]c2ccccc12)C(N)=O [ADB-INACA, reference compound]
EC50 [1]: did not reach saturation | EC50 ([2]; ref Deventer et al. [2023b]): did not reach saturation

C=CCCCn1nc(C(=O)NC(C(=O)OC)C(C)(C)C)c2ccccc21 (stereo not drawn) [MDMB-4en-PINACA, reference compound]
EC50 [3]: 17.9 nM | Emax [3]: 109%

CCCCn1nc(C(=O)NC(C(=O)OC)C(C)(C)C)c2cc(Br)ccc21 (stereo not drawn) [MDMB-5′Br-BUTINACA]
EC50 [3]: 42.4 nM | Emax [3]: 114% | Efficacy (Emax) Mean Diff [3, 4]: -6.38 | Efficacy (Emax) Mean Diff [3, 5]: 3.79 | Efficacy (Emax) Mean Diff [3, 6]: 2.52 | Efficacy (Emax) Mean Diff [3, 7]: -7.53 | fold less potent than MDMB-BUTINACA ([3]; EC50 ratio vs non-halogenated analog MDMB-BUTINACA): 4.8 fold | fold difference of each other (potency) [3]: ≤ 1.4 fold

CCCCn1nc(C(=O)NC(C(N)=O)C(C)(C)C)c2cc(Br)ccc21 (stereo not drawn) [ADB-5′Br-BUTINACA, N-[1-amino-3,3-dimethyl-1-oxobutan-2-yl]−5-bromo-1-butyl-1H-indazole-3-carboxamide]
EC50 ([1]; read-out: EC50): 12.5 nM | EC50 [2, 8]: 82.1 nM | EC50 [3]: 18 nM | Emax [3]: 110% | Efficacy (Emax) Mean Diff [3, 9]: -1.26 | Efficacy (Emax) Mean Diff [3, 10]: -2.30 | Efficacy (Emax) Mean Diff [3, 11]: 1.84 | Efficacy (Emax) Mean Diff [3, 12]: -2.84 | Efficacy (Emax) Mean Diff [3, 13]: -3.19 | Efficacy (Emax) Mean Diff [3, 14]: -15.66 | Efficacy (Emax) Mean Diff [3, 15]: -3.82 | fold more potent than ADB-BUTINACA [3, 16]: 1.2 fold | fold difference of each other (potency) [3]: ≤ 1.4 fold

CCCCCCCCCCn1nc(C(=O)NC(C(N)=O)C(C)(C)C)c2cc(Br)ccc21 (stereo not drawn) [N-(1-amino-3,3-dimethyl-1-oxobutan-2-yl)−5-bromo-1-decyl-1H-indazole-3-carboxamide]
Potency (EC50, nM) ([3]; three-parameter logistic fit, n ≥ 3, triplicate, racemic standards): not even reaching saturation

CCCCn1nc(C(=O)NC(C(=O)OC)C(C)(C)C)c2cc(F)ccc21 (stereo not drawn) [MDMB-5′F-BUTINACA]
EC50 [3]: 5.75 nM | Emax [3]: 111% | Efficacy (Emax) Mean Diff [3, 5]: 1.27 | Efficacy (Emax) Mean Diff [3, 7]: -10.05

CCCCn1nc(C(=O)NC(C(=O)OC)C(C)C)c2cc(F)ccc21 (stereo not drawn) [MMB-5′F-BUTINACA]
EC50 [3]: 26.4 nM | Emax [3]: 107% | Efficacy (Emax) Mean Diff [3, 13]: -6.25 | Efficacy (Emax) Mean Diff [3, 6]: -4.36 | Efficacy (Emax) Mean Diff [3, 17]: -2.49

CCCCn1nc(C(=O)NC(C(=O)OC)C(C)(C)C)c2ccccc21 (stereo not drawn) [MDMB-BUTINACA, reference compound]
EC50 [3]: 8.9 nM | Emax [3]: 121%

CCCCn1nc(C(=O)NC(C(N)=O)C(C)(C)C)c2ccccc21 (stereo not drawn) [ADB-BUTINACA, reference compound]
EC50 ([1]; read-out: EC50): 11.5 nM | EC50 ([2]; ref Sparkes et al. [2022], read-out: EC50): 7.72 nM | EC50 [3]: 21.5 nM | Emax [3]: 126%

COC(=O)C(NC(=O)c1n[nH]c2ccc(C)cc12)C(C)(C)C (stereo not drawn) [MDMB-5′Me-INACA, methyl 3,3-dimethyl-2-[(5-methyl-1H-indazole-3-carbonyl)amino]butanoate]
EC50 [3]: 1370 nM | Emax [3]: 113% | Efficacy (Emax) Mean Diff ([3]; Compound 1 vs Compound 2 = MDMB-5’Br-INACA): 3.46 | Efficacy (Emax) Mean Diff [3, 18]: 1.15 | fold more potent than MDMB-5′Br-INACA ([3]; EC50 ratio, tail-less SCRAs): 1.6 fold | fold more potent than MDMB-INACA ([3]; EC50 ratio, tail-less SCRAs): 2.7 fold

CCCCn1nc(C(=O)NC(C(=O)OC)C(C)(C)C)c2cc(Cl)ccc21 (stereo not drawn) [MDMB-5′Cl-BUTINACA]
EC50 [3]: 10.6 nM | Emax [3]: 110% | Efficacy (Emax) Mean Diff [3, 7]: -11.32

C=CCCCn1nc(C(=O)NC(C(N)=O)C(C)(C)C)c2cc(Br)ccc21 (stereo not drawn) [ADB-4en-5′Br-PINACA, N-(1-amino-3,3-dimethyl-1-oxobutan-2-yl)−5-bromo-1-(pent-4-en-1-yl)−1H-indazole-3-carboxamide]
EC50 [3]: 14.2 nM | Emax [3]: 111% | Efficacy (Emax) Mean Diff [3, 4]: -8.94 | fold difference of each other (potency) [3]: ≤ 1.4 fold

CCCCCn1nc(C(=O)NC(C(N)=O)C(C)(C)C)c2cc(Br)ccc21 (stereo not drawn) [ADB-5′Br-PINACA, N-(1-amino-3,3-dimethyl-1-oxobutan-2-yl)−5-bromo-1-pentyl-1H-indazole-3-carboxamide]
EC50 [3]: 19.8 nM | Emax [3]: 108% | Efficacy (Emax) Mean Diff [3, 9]: -3.10 | fold difference of each other (potency) [3]: ≤ 1.4 fold

COC(=O)C(NC(=O)c1n[nH]c2ccc(Br)cc12)C(C)(C)C (stereo not drawn) [MDMB-5′Br-INACA, methyl 2-[5-bromo-1H-indazole-3-carboxamido]−3,3-dimethylbutanoate]
EC50 [3]: 2200 nM | Emax [3]: 110% | Efficacy (Emax) Mean Diff [3, 18]: -2.31 | fold weaker in potency than JWH-018 [3]: 100 fold | fold more potent than MDMB-INACA ([3]; EC50 ratio, tail-less SCRAs): 1.7 fold

COC(=O)C(NC(=O)c1n[nH]c2ccccc12)C(C)(C)C (stereo not drawn) [MDMB-INACA, reference compound]
EC50 [3]: 3690 nM | Emax [3]: 112%

CCCCn1nc(C(=O)NC(C(N)=O)C(C)C)c2cc(F)ccc21 (stereo not drawn) [AB-5′F-BUTINACA]
EC50 [3]: 18.7 nM | Emax [3]: 107% | Efficacy (Emax) Mean Diff [3, 19]: -4.99 | Efficacy (Emax) Mean Diff [3, 13]: -6.01 | Efficacy (Emax) Mean Diff [3, 6]: -4.12 | Efficacy (Emax) Mean Diff [3, 20]: 0.24

CCCCn1nc(C(=O)NC(C(N)=O)C(C)(C)C)c2cc(Cl)ccc21 (stereo not drawn) [ADB-5′Cl-BUTINACA]
EC50 [3]: 30.1 nM | Emax [3]: 113% | Efficacy (Emax) Mean Diff [3, 14]: -12.82 | Efficacy (Emax) Mean Diff [3, 5]: 2.80 | fold less potent than ADB-BUTINACA [3, 16]: 1.4 fold

CCCCn1nc(C(=O)NC(C(N)=O)C(C)C)c2cc(Cl)ccc21 (stereo not drawn) [AB-5′Cl-BUTINACA]
EC50 [3]: 57.7 nM | Emax [3]: 112% | Efficacy (Emax) Mean Diff [3, 12]: -0.67 | Efficacy (Emax) Mean Diff [3, 5]: 2.14 | Efficacy (Emax) Mean Diff [3, 17]: 2.74

CCCCn1nc(C(=O)NC(C(=O)OC)C(C)C)c2cc(Br)ccc21 (stereo not drawn) [MMB-5′Br-BUTINACA]
EC50 [3]: 259 nM | Emax [3]: 105% | Efficacy (Emax) Mean Diff [3, 21]: -4.38 | Efficacy (Emax) Mean Diff [3, 17]: -3.81 | Efficacy (Emax) Mean Diff [3, 20]: -1.32

CCCCn1nc(C(=O)NC(C(N)=O)C(C)C)c2cc(Br)ccc21 (stereo not drawn) [AB-5′Br-BUTINACA]
EC50 [3]: 44.6 nM | Emax [3]: 115% | Efficacy (Emax) Mean Diff [3, 19]: 2.92 | Efficacy (Emax) Mean Diff ([3]; Compound 1 vs Compound 2 = AB-5’F-BUTINACA): 7.90 | Efficacy (Emax) Mean Diff [3, 21]: 5.08 | Efficacy (Emax) Mean Diff [3, 15]: 1.26 | Efficacy (Emax) Mean Diff ([3]; Compound 1 vs Compound 2 = MMB-5’Br-BUTINACA): 9.47

C=CCCCn1nc(C(=O)NC(C(=O)OC)C(C)(C)C)c2cc(Br)ccc21 (stereo not drawn) [MDMB-4en-5′Br-PINACA, methyl 2-{[5-bromo-1-(pent-4-en-1-yl)−1H-indazole-3-carbonyl]amino}−3,3-dimethylbutanoate]
EC50 [3]: 44.6 nM | Emax [3]: 120% | Efficacy (Emax) Mean Diff ([3]; Compound 1 vs Compound 2 = MDMB-4en-PINACA): 11.19 | fold less potent than MDMB-4en-PINACA ([3]; EC50 ratio vs non-halogenated analog MDMB-4en-PINACA): 2.5 fold | fold difference of each other (potency) [3]: ≤ 1.4 fold

CCCCn1nc(C(=O)NC(C(N)=O)C(C)(C)C)c2cc(F)ccc21 (stereo not drawn) [ADB-5′F-BUTINACA]
EC50 ([1]; read-out: EC50): 18.3 nM | EC50 [2, 8]: 28.8 nM | EC50 [3]: 14.4 nM | Emax [3]: 113% | Efficacy (Emax) Mean Diff [3, 12]: 0.36 | Efficacy (Emax) Mean Diff [3, 14]: -12.47 | Efficacy (Emax) Mean Diff [3, 6]: 1.89 | fold more potent than ADB-BUTINACA [3, 16]: 1.5 fold

CCCCn1nc(C(=O)NC(C(=O)OC)C(C)C)c2cc(Cl)ccc21 (stereo not drawn) [MMB-5′Cl-BUTINACA]
EC50 [3]: 148 nM | Emax [3]: 109% | Efficacy (Emax) Mean Diff [3, 12]: -3.40 | Efficacy (Emax) Mean Diff [3, 5]: -0.60

CC(C)(C)C(NC(=O)c1n[nH]c2ccc(Br)cc12)C(N)=O (stereo not drawn) [ADB-5′Br-INACA, N-[1-amino-3,3-dimethyl-1-oxobutan-2-yl]−5-bromo-1H-indazole-3-carboxamide]
EC50 [3]: 2290 nM | Emax [3]: 111% | Efficacy (Emax) Mean Diff [3, 9]: -0.21 | Efficacy (Emax) Mean Diff [3, 21]: 1.04 | Efficacy (Emax) Mean Diff [3, 10]: -1.25 | Efficacy (Emax) Mean Diff [3, 11]: 2.88 | fold weaker in potency than JWH-018 [3]: 100 fold | fold less potent than the butyl (ADB-5′Br-BUTINACA) ([3]; EC50 ratio): 127 fold

CC(C)(C)C(NC(=O)c1nn(Cc2ccc(F)cc2)c2ccc(Br)cc12)C(N)=O (stereo not drawn) [ADB-5′Br-FUBINACA]
EC50 [3]: 42.1 nM | Emax [3]: 112% | Efficacy (Emax) Mean Diff [3, 9]: 1.04 | Efficacy (Emax) Mean Diff [3, 11]: 4.13 | fold less potent than the butyl (ADB-5′Br-BUTINACA) ([3]; EC50 ratio): 2.3 fold
